Test system: wheat NIM1 homologue mRNA transcripts
Test: RNA gel blot of wheat RNA probed with the KL1/KL2 PCR product of the wheat NIM1 homologue
Assay type: in vivo
Details: polyA+ RNA from leaf tissue of young wheat plants, BTH-treated for 24 h
From the text: The PCR product from wheat genomic DNA that is obtained with PCR primers KL1 and KL2 (SEQ ID NO:3 and SEQ ID NO:4, respectively) is used to probe gel blots of wheat RNA. […] The smaller transcript corresponds to the size detected in total RNA. […] The wheat “NIM loop”-described above is also used as a probe.

CSC(=O)c1cccc2nnsc12 [BTH, benzo(1,2,3)thiadiazole-7-carbothioic acid S-methyl ester]
abundance of the two NIM1 homologue transcripts, BTH-treated versus untreated plants: equal abundance
